Data as given in patent publication US11872261B2, “Lipoprotein targeting protease inhibitors and uses” (The United States of America, as represented by the …, priority 2016, dated 2024).

Key:
[1] = Clinical pilot study: plasma lipids before and after rosuvastatin; type: in vivo, human; conditions: 28 days vs baseline
Protocol: This Example describes a small clinical pilot study which assessed the impact of statins on lipoprotein-associated proteins in healthy individuals (n=10) with normal LDL-C (<130 mg/dL), who were treated with the statin rosuvastatin (available commercially as Crestor®) (20 mg/day) for 28 days. Proteomic analysis of size-exclusion chromatography isolated LDL, HDL-L (large) and HDL-S (small) fractions and spectral counting was used to compare relative protein detection before and after statin therapy. Significant protein changes were found in each lipoprotein pool and included both increases and decreases in several proteins involved in lipoprotein metabolism, complement regulation, and acute phase response. Fasting blood samples were obtained from ten healthy volunteers participating in a study of the NIH Center for Human Immunology, intended to evaluate effects of a statin on the immune system. This protocol was approved by the institutional review board of the National Heart, Lung, and Blood Institute (NHLBI) and registered at clinicaltrials.gov (NCT01200836); all participants provided written informed consent. Three males and seven females were enrolled, with an average age of 44.1±11 years. Participants were selected to have normal LDL-C (<130 mg/dL) and were not on any lipid modification therapy prior to the study. Recruited participants were given rosuvastatin (20 mg/day) for 28 days. Blood was collected by venipuncture at the following time points: baseline, 14 and 28 days after rosuvastatin treatment, and 14 days after stopping treatment (washout). Samples were stored at -20° C. Because samples were taken from each participant at baseline and on-treatment, each subject acted as their own control. Lipid and lipoprotein assays were performed on a Siemens Dimension Vista analyzer, using standard enzymatic assays. HDL-C was measured by a direct assay (Siemens) and LDL-C was determined by the Friedewald equation. Lipoprotein particle numbers and average particle sizes were determined from heparinized plasma on a […] Clinical Analyzer (LipoScience).

[2] = tested on: lipoprotein proteome (LDL, HDL-L, HDL-S); test: Lipoprotein proteomics, spectral counting of LDL, HDL-L and HDL-S pools; type: in vivo, human; conditions: 28 days vs baseline
Protocol: Collected plasma from each subject at baseline (n=10) and after 28 days of rosuvastatin treatment (n=10) was applied to two Superdex 200 columns (GE Healthcare) arranged in series on an Akta FPLC system. The flow rate was set to 0.5 mL/min and 0.5 mL fractions were collected. Fractions were assayed for phosphatidylcholine, total cholesterol, free cholesterol and triglyceride by enzymatic assays (Wako Diagnostics) to determine position of elution for lipoproteins. For each subject, fractions were combined to make LDL (elution vol. 17.5-20 mL), HDL-large (HDL-L; elution vol. 21-23 mL) and HDL-small (HDL-S; elution vol. 23-25 mL) pools, generating a total of 60 samples for MS analysis.
Pooled FPLC fractions were applied to a phospholipid binding resin and washed to isolate lipid bound protein components, as previously described (Gordon et al., J Proteome Res 9: 5239-5249, 2010). Resin bound proteins were then subjected to overnight trypsin digestion at 37° C. Resulting peptides were collected and then reduced with dithiothreitol (200 mM; 30 min at 37° C.) and carbamidomethylated with iodoacetamide (800 mM; 30 min at 25° C.). Digest solutions were dried, reconstituted in 100 μL of water+0.1% formic acid and desalted using ZipTips (Millipore), and stored at −20° C. until MS analysis.
Desalted samples were dried and reconstituted in 20 μL of water+0.1% formic acid and 10 μL was analyzed on a Thermo Orbitrap Velos Mass Spectrometer instrument. Blank runs were performed between each sample to prevent carry over. Peak lists were generated using Proteome Discoverer (version 1.3.0.339) and resulting spectra were searched against the SwissProt database (version 012214), using Mascot (version 2.4.0) to identify protein components of the lipoprotein fractions (fragment ion mass tolerance of 0.80 Da and a parent ion tolerance of 20 PPM). Search criteria included: human taxonomy, fixed modification: carbamidomethylation (C), variable modifications: oxidation (M), deamidation (N, Q) and up to two missed trypsin cleavage sites were allowed. Validation of peptide and protein identifications was performed using Scaffold software (version 4.1.1) and a 1.0% false discovery rate (FDR) for both peptide and protein thresholds and a minimum of 2 identified peptides were required per protein. Calculated decoy FDR for peptide and protein identifications were 0.03% and 0.7%, respectively. Spectral counting was used as a semi-quantitative comparison of protein abundance between baseline and on-treatment samples using normalized spectrum count calculated by the Scaffold software. Comparisons were only performed to estimate the relative abundance of the same protein in the same lipoprotein pool before and after rosuvastatin treatment; no comparisons were made between lipoprotein fractions. Data was analyzed by student's T-test to identify proteins with statistically significant (p<0.05) changes in normalized spectral counts. Because this MS analysis was intended primarily for screening purposes, to identify candidates for hypothesis driven functional experiments, the data analysis was not corrected for multiple comparisons. All MS data have been deposited to the ProteomeXchange Consortium (Vizcaino et al., Nat Biotechnol 32: 223-226, 2014) via the PRIDE partner repository with the dataset identifier PXD002633.
To test our hypothesis that rosuvastatin alters the lipoprotein proteome, we pooled fractions containing LDL and HDL and used mass spectrometry (MS) to analyze the lipid associated protein content of each of these lipoproteins in each subject at baseline and after 28 days on rosuvastatin. The HDL peak was divided into two halves, representing large and small HDL, to gain additional insight given the proteomic complexity of HDL. […]

CC(C)c1nc(N(C)S(C)(=O)=O)nc(-c2ccc(F)cc2)c1/C=C/[C@@H](O)C[C@@H](O)CC(=O)O [rosuvastatin]
increase of HDL-C ([1]; 20 mg/day, not statistically significant): 3.6%
change in LDL-C ([1]; 20 mg/day, p<0.001): −50%
change in triglyceride ([1]; 20 mg/day, p<0.01): −29%
change in total cholesterol ([1]; healthy subjects n=10, 20 mg/day, p<0.001): −28%
change in Ig kappa chain V-II spectral counts ([2]; LDL fraction): +68%
change in complement C3 spectral counts ([2]; LDL fraction): +71%
magnitude of reductions in protein spectral counts, LDL fraction ([2]; LDL fraction): −20 to −71%
change in Ig lambda like polypeptide 5 spectral counts ([2]; large HDL): −12%
change in N-acetylmuramoyl-L-alanine amidase spectral counts ([2]; large HDL): −69%
change in alpha-1-antitrypsin (A1AT) spectral counts ([2]; large HDL): +2438%
change in ceruloplasmin spectral counts ([2]; large HDL): +27%
change in clusterin spectral counts ([2]; large HDL): −13%
change in kallikrein spectral counts ([2]; large HDL): −26%
increase in A1AT spectral counts associated with large HDL ([2]; large HDL): 24 fold
change in alpha-1-antichymotrypsin spectral counts ([2]; small HDL fraction): −89%
change in apolipoprotein C-III spectral counts ([2]; small HDL fraction): −13%
change in complement C2 spectral counts ([2]; small HDL fraction): −44%
change in vitronectin spectral counts ([2]; small HDL fraction): +23%
